Source: patent US20070060595A1, “Novel fused heterocyclic compound and use thereof” (priority 2003, published 2007)

Molecular target: recombinant human JNK (JNK1, JNK2)
Test: JNK inhibitory activity, enzyme assay (phosphorylation of biotinylated ATF2, Alpha Screen detection)
Format: biochemical
Details: JNK isoform not stated
Protocol: 5 μL of kinase buffer (25 mM Tris-HCl (pH 7.5), 5 mM β-glycerophosphoric acid, 2 mM dithiothreitol, 0.1 mM Na3VO4, 10 mM MgCl2) including recombinant human JNK (JNK1: Upstate Biotechnology #14-327, JNK2: Upstate Biotechnology #14-329) was added to well of 384-well plate for fluorescence assay (5 μL) (JNK1: 20 μU/well, JNK2: 50 μU/well). Then, kinase buffer including the compound of the present invention was added into it to carry out incubation for 20 minutes at room temperature. Subsequently, substrate mixture prepared with kinase buffer [biotinylated ATF2 (5 μg/mL) (Upstate Biotechnology #14-432), adenosine triphosphate (JNK1 activity measurement: 2 μmol/L, JNK2 activity measurement: 5 μmol/L) (Cell Signaling Technology #9804), anti-phosphorylated ATF2 antibody (20-fold dilution) (Cell Signaling Technology #9221L)] was added to carry out enzyme reaction for 30 minutes at 30° C. […] The amount of complex between phosphorylated ATF2 and anti-phosphorylated ATF2 was measured with Alpha Screen™ Rabbit Detection Kit (Packard #6760607).
JNK inhibitory activity which is the effect of the compound of the present invention was calculated as inhibition ratio (%) by the following equation: Inhibition ratio(%)=[(AC−AX)/(Ac−AB)]×100
AB: measured value without enzyme;
AC: measured value with enzyme and without a test compound;
AX: measured value with enzyme and a test compound

| IC50 [nM] | Compound |
| --- | --- |
| 330 | Clc1cc(NCc2ccc3c(c2)OCO3)n2nccc2n1 [Example 1(1), N-(1,3-benzodioxol-5-ylmethyl)-5-chloropyrazolo[1,5-a]pyrimidin-7-amine] |
| 740 | COc1cc(CNc2cc(-c3ccsc3)nc3ccnn23)cc(OC)c1OC [Example 3, 5-thien-3-yl-N-(3,4,5-trimethoxybenzyl)pyrazolo[1,5-a]pyrimidin-7-amine] |
